Laboratory results from US4395969A (priority 1981, dated 1983).
Values joined by “and” are separate entries in the source; they are usually repeats but may differ in a detail not shown here. Equal entries are not always repeated.

Key:
[1] = in vivo; conditions: chinook salmon
[2] = Half-life / degradation in water (gas chromatograph analysis); format: physicochemical; conditions: river water, 15 C
Text: The presence of bacteria and other microorganisms affect the rate of degradation of the dichloro- and tetrachloro-compounds. Because of this the chemicals break down much faster in river water than in artesian well water or distilled water. For short term bioassays the potencies of the chemicals were not affected by the chemistry of the water.

[3] = tested on: sucker and stickleback; conditions: in vivo
[4] = tested on: threespine stickleback; set-up: species or system Gasterosteus aculeatus; conditions: in vivo, 5760 min
[5] = tested on: crayfish; assay: Bioassay, crayfish; format: in vivo, Pacifasticus klamathensis; conditions: 96 h; 10 C
Procedure: Cursory bioassays were made with small numbers of other fishes and a crayfish (Pacifasticus klamathensis) to check on the universal selectivity of the toxicants. The fishes included Arctic grayling (Thymallus arcticus), longnose sucker (C. catastomus), largescale sucker, (C. macrocheilus), and spotted sucker (Minytrema melanops).
A series of bioassays tested crayfish (9 to 10 crayfish per aquarium) at concentrations of 1, 3, and 10 mg/l of 2, 2-dichlorovinyl diethyl phosphate. […] A second series of bioassays tested crayfish (10 crayfish per aquarium) at 10 concentrations of 2, 2, 2, 1-tetrachloroethyl diethyl phosphate (range, 0 to 1400 μg/l).

[6] = tested on: coho salmon; assay: Long-term static bioassay, coho salmon; conditions: 6 μg/l (or less), 64 days, 10 C, individually
[7] = tested on: Kamloops trout; assay: Static bioassay, lethal concentration to Kamloops trout; format: in vivo, Kamloops (an adfluvial rainbow trout)
Procedure: (§1) Bioassays utilized water from an artesian well at Moscow, Idaho and from the headwaters of the Palouse River, also in Idaho. The chemical characteristics of the artesian water were analyzed as follows: Total hardness 67-120 mg/l; total dissolved solids, 160-175 mg/l; and pH 7.1. The chemistry of the Palouse River water was analyzed as follows: total hardness 17 mg/l; methyl orange alkalinity 26 mg/l; total dissolved solids, 32 mg/l and pH, 7.0.
(§2) Fish were acclimated to test temperatures, usually at 5, 7.5, 10, 15 and 20 degrees Celsius (C), at least 60 hours before exposure to toxicants. For fish and crayfish four water baths regulated the temperature of assay aquaria. Each water bath contained a battery of 20 identical 19-liter clear glass containers or 11.4-liter plastic aquaria lined with disposable polyethylene bags and covered with Plexiglass lids to reduce evaporation. For larger fish and large numbers of fish the bioassays were made in two temperature controlled rooms that contained a series of 700-liter circular fiberglass vats and a series of 76- and 91-liter plastic containers.
(§3) Standard bioassay techniques were used in sorting fish and conducting the tests. Fish were placed in aerated test aquaria overnight to permit fish to recover from stress due to handling and to deprive them of food. The average load varied but most bioassays were conducted with about 1 g of fish per liter of water.
(§4) Aliquots of organophosphates were dissolved in ethanol and dispensed to the aquaria to provide concentrations suitable for obtaining the LC0 and LC50 of desirable fish and the LC50 and LC100 of target fish. Control fish were conditioned in the same manner as the test fish, but no chemical was added to the control vessels during the assays. After the addition of a chemical, observations were made mainly at 3, 6, 12, 24, 48, 96, and 192 h. The weight and fork length of fish were obtained when fishes were sacrificed.
(§5) Delineation bioassays determined primarily the LC50 and LC100 of sucker and stickleback and the LC0 and LC50 of salmonids.
(§6) The statistical LC1, LC50, and LC99 were interpolated and/or extrapolated using probit graph paper to approximate the LC0, LC50, and LC100 when the latter set of values was not closely determined by single concentrations in a series.
(§7) The approximate LC50 and LC100 of the target fishes (threespine and brook sticklebacks and bridgelip and white suckers) are tabulated in Table 1. The 96-hour selectivity and safety indices of selected species of salmonids versus the three-spine stickleback are tabulated in Table 3.
(§8) Threespine stickleback, brook stickleback, bridgelip sucker, white sucker, chinook salmon, coho salmon, sockeye salmon, kokanee, Kamloops trout, cutthroat trout, and brook trout were treated with various concentrations of 2, 2, 2, 1-tetrachloroethyl diethyl phosphate and at various temperatures to determine approximate selectivity and safety indices. The approximate LC50 and LC100 of the target fishes (threespine and brook sticklebacks and bridgelip and white suckers) are tabulated in Table 5. The 96-hour selectivity and safety indices of selected species of salmonids versus the threespine stickleback are tabulated in Table 7.

[8] = as above; format: in vivo, Kamloops (an adfluvial rainbow trout); conditions: kamloops trout, in vivo
Procedure: as §1, §2, §3, §4, §5, §6, §7, §8

[9] = Static bioassay, lethal concentration to sockeye salmon; format: in vivo, O. nerka; conditions: sockeye salmon, in vivo
Procedure: as §1, §2, §3, §4, §5, §6, §7, §8

[10] = tested on: sockeye salmon; assay: as above; format: in vivo, O. nerka
Procedure: as §1, §2, §3, §4, §5, §6, §7, §8

[11] = tested on: bridgelip sucker; assay: Selectivity and safety indices of salmonids versus the bridgelip sucker; format: in vivo, Catastomus columbianus; conditions: 96 h
Text: as §5, §6, §7, §8

[12] = 10 C, 96 h, individually, listed as 2, 2, 2, 1-tetrachloroethyl diethyl phosphate
[13] = 10 C, 96 h, individually, listed as 4 Cl
[14] = 10 C, individually, read-out: LC50
[15] = with 2 Cl 1:300, 10 C, read-out: LC50 in combination, 4 Cl component

## CCOP(=O)(OCC)OC(Cl)C(Cl)(Cl)Cl (centres unmarked) [2,2,2,1-tetrachloroethyl diethyl phosphate]
[1]
  LC50 at 48 h: 0.035 µg/mL
  LC50 at 96 h: 0.025 µg/mL
  LC50 at 192 h: 0.025 µg/mL
[2]
  half-life: ~11 days
[3]
  activity relative to the dichloro-compounds: about 100 times
  recommended safe and effective concentration: 20 µg/L
[4]
  Safety index (LC0/LC100): 2.3
[5]
  concentration at which no crayfish died: ≤ 200 ng/mL
[6]
  mortality: Essentially no mortality
[6]; listed as 2, 2, 2, 1-tetrachloroethyl diethyl phosphate
  mortality: no significant mortality
[7]; 5 C, 96 h
  LC0: 24 µg/L
[7]; 5 C, 192 h
  LC0: 12 µg/L
[7]; [12]
  LC0: 18 µg/L and 14 µg/L
[7]; [13]
  LC0: 14 µg/L
[7]; 10 C, 192 h
  LC0: 10 µg/L
[7]; 15 C, 96 h
  LC0: 24 µg/L
[7]; 15 C, 192 h
  LC0: 14 µg/L
[8]; 5 C, read-out: LC50
  LC50 at 96 h: > 0.03 µg/mL
  LC50 at 192 h: 0.018 µg/mL
[8]; [14]
  LC50 at 96 h: 0.024 µg/mL
  LC50 at 192 h: 0.02 µg/mL
[8]; 15 C, read-out: LC50
  LC50 at 96 h: > 0.024 µg/mL
  LC50 at 192 h: > 0.024 µg/mL
[8]; [15]
  LC50 at 96 h: 0.008 µg/mL
  LC50 at 192 h: 0.005 µg/mL
[9]; 7.5 C
  LC50 at 48 h: 0.05 µg/mL
[9]; 7.5 C, read-out: LC50
  LC50 at 96 h: 0.02 µg/mL
  LC50 at 192 h: 0.014 µg/mL
[9]; 10 C
  LC50 at 48 h: 0.03 µg/mL
[9]; [14]
  LC50 at 96 h: 0.017 µg/mL
  LC50 at 192 h: 0.016 µg/mL
[9]; [15]
  LC50 at 96 h: 0.008 µg/mL
  LC50 at 192 h: 0.006 µg/mL
[10]; 7.5 C, 48 h
  LC0: 36 µg/L
[10]; 7.5 C, 96 h
  LC0: 14 µg/L
[10]; 7.5 C, 192 h
  LC0: 10 µg/L
[10]; 10 C, 48 h
  LC0: 20 µg/L
[10]; 10 C, 96 h, individually
  LC50: 0.017 µg/mL
[10]; [12]
  LC0: 12 µg/L and 10 µg/L
[10]; [13]
  LC0: 12 µg/L
[10]; 10 C, 192 h
  LC0: 10 µg/L
[10]; 10 C, 192 h, individually, listed as 4 Cl, 11520 min
  LC50: 0.015 µg/mL
[11]; Kamloops, 5 C
  Safety index (LC0/LC100): 2.4
  Selectivity index (LC50/LC50): 4.3
[11]; Kamloops, 10 C
  Safety index (LC0/LC100): 1.8
  Selectivity index (LC50/LC50): 6.0
[11]; Kamloops, 15 C
  Safety index (LC0/LC100): 2.1
  Selectivity index (LC50/LC50): 6.0
[11]; brook trout, 15 C
  Safety index (LC0/LC100): 1.4
  Selectivity index (LC50/LC50): 5.0
[11]; chinook, 10 C
  Safety index (LC0/LC100): 2.4
  Selectivity index (LC50/LC50): 6.3
[11]; coho, 10 C
  Safety index (LC0/LC100): 1.7
  Selectivity index (LC50/LC50): 5.8
[11]; cutthroat, 10 C
  Safety index (LC0/LC100): 1.7
  Selectivity index (LC50/LC50): 4.8
[11]; cutthroat, 15 C
  Safety index (LC0/LC100): 2.0
  Selectivity index (LC50/LC50): 4.5
[11]; kokanee, 15 C
  Safety index (LC0/LC100): 2.9
  Selectivity index (LC50/LC50): 7.5
[11]; sockeye, 10 C
  Safety index (LC0/LC100): 1.4
  Selectivity index (LC50/LC50): 7.5
